As a reminder, the inhibition in vivo is how much of the control response was suppressed. As usually defined, the LD50 is the dose at which mortality reaches 50%. As usually defined, the ED50 is the midpoint of the dose-response relation. In general, TD50 refers to the dose at which the toxic effect under study appears in half of the subjects. Read a high TD50 as harm only at a large dose.

Activity calls are given as the source filed them. The rule behind the calls is not given here.

The test system of the first data set is Mus musculus. As to the kind of experiment: Anticonvulsant activity in Swiss albino mouse assessed as protection against picrotoxin-induced seizure at 0.5 mmol/kg, ip administered 30 mins before challenge.
Details: not given
The format is functional, organism-based.
For `Cc1ccccc1-n1c(C)nc2c(OCC(=O)NCCO)cccc2c1=O`, the inhibition result is “inactive”.

For `Cc1ccccc1-n1c(C)nc2c(OCC(=O)NNC(=O)NN)cccc2c1=O`, the inhibition entry is “inactive”.

As to `Cc1ccccc1-n1c(C)nc2c(OCC(=O)NNC(N)=O)cccc2c1=O`, the inhibition result was “inactive”.

For `Cc1ccccc1-n1c(C)nc2c(OCC(=O)N/N=C\c3ccccc3)cccc2c1=O`, the inhibition entry is “inactive”.

As for `Cc1ccccc1-n1c(C)nc2c(OCC(=O)NN)cccc2c1=O`, the inhibition entry is “inactive”.

Regarding `CCOC(=O)NNC(=O)COc1cccc2c(=O)n(-c3ccccc3C)c(C)nc12`, the inhibition result is “inactive”.

For `Cc1ccccc1-n1c(C)nc2c(OCC(=O)NNC(=S)NN)cccc2c1=O`, the inhibition entry was “inactive”.

Take `CSC(=S)NNC(=O)COc1cccc2c(=O)n(-c3ccccc3C)c(C)nc12`: the inhibition entry is “inactive”.

With `COc1ccccc1/C=N\NC(=O)COc1cccc2c(=O)n(-c3ccccc3C)c(C)nc12`, the inhibition result was “inactive”.

For `Cc1ccccc1-n1c(C)nc2c(OCC(=O)N/N=C\c3ccccc3F)cccc2c1=O`, the inhibition result is “inactive”.

A further data set deals with Mus musculus. Put plainly: Anticonvulsant activity in Swiss albino mouse assessed as protection against strychnine-induced seizure at 0.5 mmol/kg, ip administered 30 mins before challenge. The format is functional, organism-based.
Details: not given
On to `Cc1ccccc1-n1c(C)nc2c(OCC(=O)NCCO)cccc2c1=O`, for which the inhibition result was “inactive”.

On to `Cc1ccccc1-n1c(C)nc2c(OCC(=O)NNC(=O)NN)cccc2c1=O`, for which the inhibition result is “inactive”.

`Cc1ccccc1-n1c(C)nc2c(OCC(=O)NNC(N)=O)cccc2c1=O`: the inhibition result is “inactive”.

For `Cc1ccccc1-n1c(C)nc2c(OCC(=O)N/N=C\c3ccccc3)cccc2c1=O`, the inhibition entry is “inactive”.

In the case of `Cc1ccccc1-n1c(C)nc2c(OCC(=O)NN)cccc2c1=O`, the inhibition entry was “inactive”.

With `CCOC(=O)NNC(=O)COc1cccc2c(=O)n(-c3ccccc3C)c(C)nc12`, the inhibition result was “inactive”.

For the compound `Cc1ccccc1-n1c(C)nc2c(OCC(=O)NNC(=S)NN)cccc2c1=O`, the inhibition entry is “inactive”.

In the case of `CSC(=S)NNC(=O)COc1cccc2c(=O)n(-c3ccccc3C)c(C)nc12`, the inhibition entry is “inactive”.

Take `COc1ccccc1/C=N\NC(=O)COc1cccc2c(=O)n(-c3ccccc3C)c(C)nc12`: the inhibition result was “inactive”.

As to `Cc1ccccc1-n1c(C)nc2c(OCC(=O)N/N=C\c3ccccc3F)cccc2c1=O`, the inhibition entry was “inactive”.

A further data set relates to Mus musculus. As to the kind of experiment: Anticonvulsant activity in Swiss albino mouse assessed as protection against PTZ-induced clonic seizure at 200 mg/kg, ip administered 30 mins before challenge. The conditions noted are these: route intraperitoneal. It counts as functional.
With `Cc1ccccc1-n1c(C)nc2ccccc2c1=O` [METHAQUALONE], the inhibition in vivo at 200 mg/kg was found to be 100%.

The subject of another data set is Mus musculus. As to the kind of experiment: Anticonvulsant activity in Swiss albino mouse assessed as protection against maximal electroshock-induced seizure at 300 mg/kg, ip administered 30 mins before challenge. It counts as functional. The conditions noted are these: route intraperitoneal. Background: In the maximal electroshock model the usual endpoint is tonic extension of the hind limbs.
For the compound `CCCC(CCC)C(=O)[O-].[Na+]` [VALPROATE SODIUM], the inhibition in vivo at 300 mg/kg amounted to 100%.

The next data set has as its system Mus musculus. As to the kind of experiment: Anticonvulsant activity in Swiss albino mouse assessed as protection against PTZ-induced clonic seizure at 300 mg/kg, ip administered 30 mins before challenge. It counts as functional. The conditions noted are these: route intraperitoneal.
Consider `CCCC(CCC)C(=O)[O-].[Na+]` [VALPROATE SODIUM], for which the inhibition in vivo at 300 mg/kg amounted to 100%.

For another data set, the system named is Mus musculus. As to the kind of experiment: Anticonvulsant activity in Swiss albino mouse assessed as protection against maximal electroshock-induced seizure at 0.5 mmol/kg, ip administered 30 mins before challenge.
Details: not given
The format is functional.
For the compound `Cc1ccccc1-n1c(C)nc2c(OCC(=O)NCCO)cccc2c1=O`, the inhibition in vivo at 500 µmol/kg came to 0%.

Consider `Cc1ccccc1-n1c(C)nc2c(OCC(=O)NNC(=O)NN)cccc2c1=O`, for which the inhibition in vivo at 500 µmol/kg stood at 0%.

For the compound `Cc1ccccc1-n1c(C)nc2c(OCC(=O)NNC(N)=O)cccc2c1=O`, the inhibition in vivo at 500 µmol/kg was 0%.

On to `Cc1ccccc1-n1c(C)nc2c(OCC(=O)N/N=C\c3ccccc3)cccc2c1=O`, for which the inhibition in vivo at 500 µmol/kg came out at 0%.

For `Cc1ccccc1-n1c(C)nc2c(OCC(=O)NN)cccc2c1=O`, the inhibition in vivo at 500 µmol/kg came to 50%.

`CCOC(=O)NNC(=O)COc1cccc2c(=O)n(-c3ccccc3C)c(C)nc12`: the inhibition in vivo at 500 µmol/kg was found to be 100%.

For the compound `Cc1ccccc1-n1c(C)nc2c(OCC(=O)NNC(=S)NN)cccc2c1=O`, the inhibition in vivo at 500 µmol/kg amounted to 33%.

As for `CSC(=S)NNC(=O)COc1cccc2c(=O)n(-c3ccccc3C)c(C)nc12`, the inhibition in vivo at 500 µmol/kg is 100%.

For the compound `COc1ccccc1/C=N\NC(=O)COc1cccc2c(=O)n(-c3ccccc3C)c(C)nc12`, the inhibition in vivo at 500 µmol/kg came to 0%.

For the compound `Cc1ccccc1-n1c(C)nc2c(OCC(=O)N/N=C\c3ccccc3F)cccc2c1=O`, the inhibition in vivo at 500 µmol/kg was 50%.

For a further data set, the species on record is Mus musculus. As to the kind of experiment: Protective index, ratio of TD50 for neurotoxicity to ED50 for anticonvulsant activity in Swiss albino mouse.
Details: not given
The format is functional.
For the compound `Cc1ccccc1-n1c(C)nc2c(OCC(=O)NN)cccc2c1=O`, the PI was 2.72.

In the case of `CCOC(=O)NNC(=O)COc1cccc2c(=O)n(-c3ccccc3C)c(C)nc12`, the PI is listed as 2.61.

Consider `CSC(=S)NNC(=O)COc1cccc2c(=O)n(-c3ccccc3C)c(C)nc12`, for which the PI came to 1.91.

Regarding `Cc1ccccc1-n1c(C)nc2ccccc2c1=O` [METHAQUALONE], the PI is listed as 2.

Test system in the next data set: not listed separately
As to the kind of experiment: Neurotoxicity in ip dosed Swiss albino mouse assessed as mortality. It counts as toxicity, organism-based. The settings on record: in vivo.
In the case of `CCCC(CCC)C(=O)[O-].[Na+]` [VALPROATE SODIUM], the LD50 was 500 mg/kg.

`Cc1ccccc1-n1c(C)nc2c(OCC(=O)NN)cccc2c1=O`: the 50% lethal dose (LD50) amounted to 1000 mg/kg.

As to `CCOC(=O)NNC(=O)COc1cccc2c(=O)n(-c3ccccc3C)c(C)nc12`, the LD50 is 418 mg/kg.

As to `CSC(=S)NNC(=O)COc1cccc2c(=O)n(-c3ccccc3C)c(C)nc12`, the median lethal dose (LD50) is 501 mg/kg.

`Cc1ccccc1-n1c(C)nc2ccccc2c1=O` [METHAQUALONE]: the median lethal dose (LD50) turned out to be 500 mg/kg.

A further data set relates to Mus musculus. As to the kind of experiment: Anticonvulsant activity in Swiss albino mouse assessed as protection against PTZ-induced seizure at 0.5 mmol/kg, ip administered 30 mins before challenge. It counts as functional.
Details: not given
Take `Cc1ccccc1-n1c(C)nc2c(OCC(=O)NCCO)cccc2c1=O`: the inhibition in vivo at 500 µmol/kg stood at 50%.

As for `Cc1ccccc1-n1c(C)nc2c(OCC(=O)NNC(=O)NN)cccc2c1=O`, the inhibition in vivo at 500 µmol/kg was 50%.

In the case of `Cc1ccccc1-n1c(C)nc2c(OCC(=O)NNC(N)=O)cccc2c1=O`, the inhibition in vivo at 500 µmol/kg was 50%.

Consider `Cc1ccccc1-n1c(C)nc2c(OCC(=O)N/N=C\c3ccccc3)cccc2c1=O`, for which the inhibition in vivo at 500 µmol/kg is 50%.

In the case of `Cc1ccccc1-n1c(C)nc2c(OCC(=O)NN)cccc2c1=O`, the inhibition in vivo at 500 µmol/kg is 100%.

For `CCOC(=O)NNC(=O)COc1cccc2c(=O)n(-c3ccccc3C)c(C)nc12`, the inhibition in vivo at 500 µmol/kg is 100%.

Take `Cc1ccccc1-n1c(C)nc2c(OCC(=O)NNC(=S)NN)cccc2c1=O`: the inhibition in vivo at 500 µmol/kg was determined as 66%.

Take `CSC(=S)NNC(=O)COc1cccc2c(=O)n(-c3ccccc3C)c(C)nc12`: the inhibition in vivo at 500 µmol/kg is 100%.

As to `COc1ccccc1/C=N\NC(=O)COc1cccc2c(=O)n(-c3ccccc3C)c(C)nc12`, the inhibition in vivo at 500 µmol/kg came out at 33%.

Take `Cc1ccccc1-n1c(C)nc2c(OCC(=O)N/N=C\c3ccccc3F)cccc2c1=O`: the inhibition in vivo at 500 µmol/kg is 66%.

Test system in another data set: not listed separately
As to the kind of experiment: Therapeutic index, ratio of LD50 for mortality to ED50 for anticonvulsant activity in Swiss albino mouse. It counts as organism-based. The settings on record: in vivo, read-out: TI.
Consider `Cc1ccccc1-n1c(C)nc2c(OCC(=O)NN)cccc2c1=O`, for which the therapeutic index amounted to 10.2.

Regarding `CCOC(=O)NNC(=O)COc1cccc2c(=O)n(-c3ccccc3C)c(C)nc12`, the therapeutic index was 1.53.

`CSC(=S)NNC(=O)COc1cccc2c(=O)n(-c3ccccc3C)c(C)nc12`: the therapeutic index was found to be 3.34.

For `Cc1ccccc1-n1c(C)nc2ccccc2c1=O` [METHAQUALONE], the therapeutic index came out at 2.5.

Another data set relates to Mus musculus. Put plainly: Anticonvulsant activity in ip dosed Swiss albino mouse assessed as protection against PTZ-induced seizure compound administered 30 mins before challenge measured after 60 mins. The format is functional.
Details: not given
Regarding `CCCC(CCC)C(=O)[O-].[Na+]` [VALPROATE SODIUM], the ED50 turned out to be 300 mg/kg.

On to `Cc1ccccc1-n1c(C)nc2c(OCC(=O)NN)cccc2c1=O`, for which the 50% effective dose (ED50) was found to be 98 mg/kg.

Consider `CCOC(=O)NNC(=O)COc1cccc2c(=O)n(-c3ccccc3C)c(C)nc12`, for which the ED50 was 160 mg/kg.

As for `CSC(=S)NNC(=O)COc1cccc2c(=O)n(-c3ccccc3C)c(C)nc12`, the ED50 came out at 150 mg/kg.

`Cc1ccccc1-n1c(C)nc2ccccc2c1=O` [METHAQUALONE]: the ED50 is 200 mg/kg.

Test system in another data set: not listed separately
Put plainly: Neurotoxicity in ip dosed Swiss albino mouse measured after 30 mins by chimney test. The format is toxicity, organism-based. The conditions noted are these: in vivo.
`CCCC(CCC)C(=O)[O-].[Na+]` [VALPROATE SODIUM] displayed a TD50 at 0.5 h of 450 mg/kg.

As for `Cc1ccccc1-n1c(C)nc2c(OCC(=O)NN)cccc2c1=O`, the TD50 at 0.5 h came out at 267 mg/kg.

Regarding `CCOC(=O)NNC(=O)COc1cccc2c(=O)n(-c3ccccc3C)c(C)nc12`, the TD50 at 0.5 h worked out at 246 mg/kg.

As to `CSC(=S)NNC(=O)COc1cccc2c(=O)n(-c3ccccc3C)c(C)nc12`, the TD50 at 0.5 h amounted to 287 mg/kg.

On to `Cc1ccccc1-n1c(C)nc2ccccc2c1=O` [METHAQUALONE], for which the TD50 at 0.5 h amounted to 400 mg/kg. This TD50 at 0.5 h and that of the compound before are within 1.5-fold of each other.

For a further data set, the system named is Mus musculus. As to the kind of experiment: Anticonvulsant activity in Swiss albino mouse assessed as protection against maximal electroshock-induced seizure at 200 mg/kg, ip administered 30 mins before challenge. The conditions noted are these: route intraperitoneal. It counts as functional.
Take `Cc1ccccc1-n1c(C)nc2ccccc2c1=O` [METHAQUALONE]: the inhibition in vivo at 200 mg/kg turned out to be 100%.

The values are drawn from ChEMBL document CHEMBL1932921, “Synthesis and anticonvulsant evaluation of some new 2,3,8-trisubstituted-4(3H)-quinazoline derivatives” (Bioorg Med Chem Lett, 2012).
